Measured values from ChEMBL document CHEMBL1201862, “PubChem BioAssay data set” (2004).
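Five compound concentrations were applied to cells in 96-well plates for 48 hours; endpoints were derived by simple linear interpolation of the resulting dose-response curve. GI50 = concentration required for 50% inhibition of growth.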 Calls of active or inactive are those of the source. Cut-off read from the data, not from the text of the source: active = GI50 up to about 1.1 µM and inactive = higher.

Legend:
Assay in all cases: NCI tumour cell line growth inhibition, 48 h
SF-268 = system: SF-268
TK-10 = system: TK-10
MOLT-4 = system: MOLT-4
HCT-116 = system: HCT-116
CAKI-1 = system: CAKI-1
UACC-62 = system: UACC-62
NCI-H23 = system: NCI-H23
SF-295 = system: SF-295
SK-MEL-2 = system: SK-MEL-2
SN12C = system: SN12C
HOP-62 = system: HOP-62
IGROV-1 = system: IGROV-1
A498 = system: A498
HOP-92 = system: HOP-92
NCI-H226 = system: NCI-H226
UO-31 = system: UO-31
RXF 393 = system: RXF 393
786-0 = system: 786-0
NCI-H460 = system: NCI-H460

Row | SMILES | GI50 (SF-268) | GI50 (TK-10) | GI50 (MOLT-4) | GI50 (HCT-116) | GI50 (CAKI-1) | GI50 (UACC-62) | GI50 (NCI-H23) | GI50 (SF-295) | GI50 (SK-MEL-2) | GI50 (SN12C) | GI50 (HOP-62) | GI50 (IGROV-1) | GI50 (A498) | GI50 (HOP-92) | GI50 (NCI-H226) | GI50 (UO-31) | GI50 (RXF 393) | GI50 (786-0) | GI50 (NCI-H460)
1 | O=P(Nc1cccc(Cl)c1)(Oc1ccccc1)N(CCCl)CCCl (stereo not given) | 15.1 µM (inactive) | 13.7 µM (inactive) | 17.4 µM (inactive) | 13.1 µM (inactive) | 13.9 µM (inactive) | 11.6 µM (inactive) | 16.5 µM (inactive) | 14.5 µM (inactive) | 12.6 µM (inactive) | 14.9 µM (inactive) | 16.6 µM (inactive) | 15.8 µM (inactive) | 14.4 µM (inactive) | 11.9 µM (inactive) | 15 µM (inactive) | 85.9 µM (inactive) | – | – | –
2 | Cc1cc(N(CCC#N)CCC#N)ccc1/N=N/c1cccc(C(=O)O)c1 | > 100 µM (inactive) | > 100 µM (inactive) | > 100 µM (inactive) | – | > 100 µM (inactive) | 60.5 µM (inactive) | > 100 µM (inactive) | > 100 µM (inactive) | > 100 µM (inactive) | > 100 µM (inactive) | > 100 µM (inactive) | > 100 µM (inactive) | > 100 µM (inactive) | – | > 100 µM (inactive) | > 100 µM (inactive) | > 100 µM (inactive) | > 100 µM (inactive) | –
3 | O=C(c1ccc(O)cc1O)C1C(c2ccc(O)cc2)OC(c2ccc(O)cc2)C1C(=O)c1ccc(O)cc1O (stereo not given) | 17.1 µM (inactive) | 14.7 µM (inactive) | – | – | 45.6 µM (inactive) | – | 30 µM (inactive) | 25.5 µM (inactive) | 22 µM (inactive) | > 10 µM (inactive) | 5.26 µM (inactive) | – | – | – | 17.2 µM (inactive) | 18.7 µM (inactive) | 25.5 µM (inactive) | 5.38 µM (inactive) | 42.8 µM (inactive)
4 | Clc1ccc2c(Cl)nc(-c3ccccc3)nc2c1 | 24.9 µM (inactive) | 46.1 µM (inactive) | 20.2 µM (inactive) | 27.4 µM (inactive) | 23.6 µM (inactive) | 19.4 µM (inactive) | 10.7 µM (inactive) | 25.2 µM (inactive) | 26.4 µM (inactive) | 21.8 µM (inactive) | 53.2 µM (inactive) | 24.5 µM (inactive) | 37.4 µM (inactive) | – | 13.2 µM (inactive) | 24.5 µM (inactive) | 23.4 µM (inactive) | – | 24.3 µM (inactive)
5 | CCOC(=O)CC(=O)ON(C)C(=O)Cc1ccccc1 | > 100 µM (inactive) | > 10 µM (inactive) | – | > 100 µM (inactive) | > 100 µM (inactive) | > 100 µM (inactive) | > 100 µM (inactive) | > 100 µM (inactive) | > 100 µM (inactive) | > 100 µM (inactive) | > 100 µM (inactive) | > 100 µM (inactive) | > 100 µM (inactive) | – | > 100 µM (inactive) | > 100 µM (inactive) | – | > 100 µM (inactive) | > 100 µM (inactive)
6 | C[P+](C)(C)c1ccccc1 | > 100 µM (inactive) | > 100 µM (inactive) | > 100 µM (inactive) | > 100 µM (inactive) | > 100 µM (inactive) | > 100 µM (inactive) | > 100 µM (inactive) | > 100 µM (inactive) | > 100 µM (inactive) | > 100 µM (inactive) | > 100 µM (inactive) | > 100 µM (inactive) | – | > 100 µM (inactive) | > 100 µM (inactive) | > 100 µM (inactive) | > 100 µM (inactive) | > 100 µM (inactive) | > 100 µM (inactive)
7 | Cn1c(=O)n(CC2CS2)c2ccccc21 (stereo not given) | > 100 µM (inactive) | > 100 µM (inactive) | 88.1 µM (inactive) | > 100 µM (inactive) | 44.5 µM (inactive) | > 100 µM (inactive) | – | > 100 µM (inactive) | > 100 µM (inactive) | > 100 µM (inactive) | > 100 µM (inactive) | > 100 µM (inactive) | – | 68.4 µM (inactive) | > 100 µM (inactive) | > 100 µM (inactive) | > 100 µM (inactive) | – | > 100 µM (inactive)
8 | CCOC(=O)[C@H]1Nc2ccc(Cl)cc2[C@H]2OCC[C@@H]12 | > 100 µM (inactive) | > 100 µM (inactive) | > 100 µM (inactive) | > 100 µM (inactive) | > 100 µM (inactive) | > 100 µM (inactive) | > 100 µM (inactive) | > 100 µM (inactive) | 75 µM (inactive) | > 100 µM (inactive) | > 100 µM (inactive) | > 100 µM (inactive) | > 100 µM (inactive) | – | > 100 µM (inactive) | – | > 100 µM (inactive) | > 100 µM (inactive) | > 100 µM (inactive)
9 | COC(=O)C(Cc1nc2ccccc2nc1O)C(=O)C(=O)Nc1ccc(F)cc1 (stereo not given) | 13.1 µM (inactive) | > 100 µM (inactive) | 58.6 µM (inactive) | 41.2 µM (inactive) | > 100 µM (inactive) | 24.2 µM (inactive) | 34 µM (inactive) | > 100 µM (inactive) | 34.4 µM (inactive) | 40.9 µM (inactive) | > 100 µM (inactive) | 53.5 µM (inactive) | – | 20.8 µM (inactive) | > 100 µM (inactive) | > 100 µM (inactive) | 23.4 µM (inactive) | 25.4 µM (inactive) | > 100 µM (inactive)
10 | CS(=O)(=O)c1nc(-c2cc3c(c(S(C)(=O)=O)n2)CCC3)cc2c1CCCCC2 | 14.8 µM (inactive) | 42.7 µM (inactive) | > 100 µM (inactive) | > 100 µM (inactive) | 21 µM (inactive) | 22.9 µM (inactive) | 41.4 µM (inactive) | 31.7 µM (inactive) | 24.8 µM (inactive) | > 100 µM (inactive) | 16.9 µM (inactive) | 20.1 µM (inactive) | – | – | 56.6 µM (inactive) | 0.834 µM (active) | 18.5 µM (inactive) | 70.8 µM (inactive) | –
11 | CCOC(=O)c1c(-c2ccccc2)c(-c2ccccc2)cn1C | > 10 µM (inactive) | > 10 µM (inactive) | > 10 µM (inactive) | – | – | > 10 µM (inactive) | > 10 µM (inactive) | > 10 µM (inactive) | 8.15 µM (inactive) | > 10 µM (inactive) | – | > 10 µM (inactive) | – | > 10 µM (inactive) | > 10 µM (inactive) | > 10 µM (inactive) | 3.93 µM (inactive) | > 10 µM (inactive) | > 10 µM (inactive)
12 | CC1(c2ccc(Cl)cc2)C2C(=O)NC(=O)C1C(=O)NC2=O (stereo not given) | > 100 µM (inactive) | > 100 µM (inactive) | > 100 µM (inactive) | – | > 100 µM (inactive) | > 100 µM (inactive) | > 100 µM (inactive) | > 100 µM (inactive) | > 100 µM (inactive) | > 100 µM (inactive) | > 100 µM (inactive) | > 100 µM (inactive) | > 100 µM (inactive) | > 100 µM (inactive) | – | > 100 µM (inactive) | > 100 µM (inactive) | > 100 µM (inactive) | > 100 µM (inactive)
